Results on 3 compounds are retold here after patent US11647776B2, “Extract, consumable product and method for enriching bioactive metabolite in an extract” (Brightseed, Inc., priority 2019, dated 2023).

Assay [1] concerns red potatoes. The assay can be described thus: wounding combined with precursor exposure: N-trans-feruloyltyramine production in sliced red potatoes. Details: species or system Solanum tuberosum. To be noted: sliced red potatoes dipped in 400 μM tyramine or citric acid (pH ~4); for N-trans-feruloyltyramine production: 4 days at room temperature, water control. The method, then: Red potatoes were sliced (i.e., and boiled in water for 6 minutes or dipped into abiotic […]) aqueous solutions of 400 μM tyramine or citric acid (pH ˜4).
For this analysis, red potatoes were sliced to a standard thickness (¼ inch; two potatoes/time point). Subsequently, the potato slices were either boiled in water for 6 minutes, or dipped into aqueous solutions of 400 μM tyramine (as precursor) or citric acid (pH ˜4; as a preservative), or water (control). The potato slices were loosely covered to allow for air flow and incubated for 4 days at room temperature.

The test system of assay [2] is Solanum tuberosum. The assay can be described thus: wounding response of potato tubers (N-trans-feruloyltyramine production). The note with it: wounded potatoes.
Description: Thus, it was determined whether elevated levels tyramine containing hydroxycinnamic acid amides could be generated in situ by subjecting a plant to an abiotic stress, e.g., wounding. In particular, yellow tubers of Solanum tuberosum were wounded by wounding and production of N-trans-feruloyltyramine in the tuber was assessed 1, 5 and 9 days after wounding.
Assay [3] deals with red potatoes. The assay can be described thus: wounding combined with THT enzyme elicitors: N-trans-feruloyltyramine production in sliced red potatoes. Details: species or system Solanum tuberosum. To be noted: sliced red potatoes dipped in 1 mg/ml laminaran, 10 mg/ml inactivated cordy-gen fungi or 10 mg/ml live endomycorrhizal fungi; 4 or 8 days at room temperature; water control. Here is the method:
Red potatoes were sliced (i.e., wounded) and dipped into aqueous solutions of 10 mg/ml live endomycorrhizal fungi, 10 mg/ml inactivated cordy-gen fungi, or 1 mg/ml laminaran (polysaccharide from brown algae).
For this analysis, red potatoes were sliced to a standard thickness. Subsequently, the potato slices were dipped into solutions of 10 mg/ml live endomycorrhizal fungi, 10 mg/ml inactivated cordy-gen fungi (from Mycopia), 1 mg/ml laminaran (polysaccharide from brown algae) or water (control) The potato slices were loosely covered to allow for air flow and incubated for 4 or 8 days at room temperature.

Take `O=C(O)CC(O)(CC(=O)O)C(=O)O` [citric acid]: in assay [1], the “browning of the wounded potato slices” value is listed as “inhibited the browning pathway” and the N-trans-feruloyltyramine production entry was “little effect”.

With `NCCc1ccc(O)cc1` [tyramine], in assay [1], the “browning of the wounded potato slices” value was “further increased browning” and the N-trans-feruloyltyramine production entry is on record as “could enhance”. Moreover, in assay [2], the “effect on the wounding response” value is listed as “enhanced the wounding response”.

With laminaran, the “production of N-trans-feruloyltyramine in response to wounding” value in assay [3] was “substantially enhanced”.
